Measured values: PubChem BioAssay (NCI)
Values joined by “and” are separate entries in the source; they are usually repeats but may differ in a detail not shown here. Equal values may be shown once.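 Cells were grown in 96-well plates and exposed to each compound for 48 hours at five concentrations; endpoints were interpolated linearly between bracketing concentrations, or set to the highest concentration if not reached. The concentration for 50% growth inhibition is given as GI50. TGI is the concentration that stops growth completely.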

Tests used:
Test in all cases: DTP human tumour cell line panel, 48 h
786-0 renal = tested on: 786-0 renal
ACHN renal = tested on: ACHN renal
CAKI-1 renal = tested on: CAKI-1 renal
COLO 205 colon = tested on: COLO 205 colon
HCT-116 colon = tested on: HCT-116 colon
MALME-3M melanoma = tested on: MALME-3M melanoma
NCI-H522 lung = tested on: NCI-H522 lung
SK-OV-3 ovarian = tested on: SK-OV-3 ovarian
TK-10 renal = tested on: TK-10 renal
U251 CNS = tested on: U251 CNS

Compound | TGI (786-0 renal) | TGI (ACHN renal) | TGI (CAKI-1 renal) | TGI (COLO 205 colon) | TGI (HCT-116 colon) | TGI (MALME-3M melanoma) | TGI (NCI-H522 lung) | TGI (SK-OV-3 ovarian) | TGI (TK-10 renal) | TGI (U251 CNS) | GI50 (786-0 renal) | GI50 (ACHN renal) | GI50 (CAKI-1 renal) | GI50 (COLO 205 colon) | GI50 (HCT-116 colon) | GI50 (MALME-3M melanoma) | GI50 (NCI-H522 lung) | GI50 (SK-OV-3 ovarian) | GI50 (TK-10 renal) | GI50 (U251 CNS)
CCCOC(=O)C1CCC(=O)N1C(=O)C(Cl)Cl (stereo not drawn) | > 100 µM | > 100 µM | > 100 µM | > 100 µM | > 100 µM | > 100 µM | > 100 µM | > 100 µM | > 100 µM | > 100 µM |  |  |  |  |  |  |  |  |  | 
O=C(CC(O)(c1ccccc1)c1ccc(Cl)cc1)NC(=O)c1ccccc1O (stereo not drawn) | 44.9 µM | 99 µM | 23.2 µM | 27.5 µM | 52.6 µM | 70.6 µM | 14.9 µM | 55.4 µM | 41.2 µM | 26.5 µM |  |  |  |  |  |  |  |  |  | 
Cc1nc2c(cnn2-c2ccnc3c(C(F)(F)F)cccc23)c(=O)o1 | > 100 µM | > 100 µM | > 100 µM | > 100 µM | > 100 µM | > 100 µM | > 100 µM | > 100 µM | > 100 µM | > 100 µM | > 100 µM | > 100 µM | > 100 µM | > 100 µM | > 100 µM | > 100 µM | > 100 µM | > 100 µM | > 100 µM | > 100 µM
C=C1C(=O)O[C@@H]2[C@@H]3O[C@@](C)(CC/C=C(\C)CCC[C@@H]2C)[C@H](O)C[C@@H]13 | 20.3 µM | 3.11 µM | 4.5 µM | 4.21 µM | 2.87 µM | 4.11 µM | 4.5 µM | 25.8 µM | 3.46 µM | 15.6 µM | 7.02 µM | 1.59 µM | 1.73 µM | 2.06 µM | 1.49 µM | 1.76 µM | 2.11 µM | 13.1 µM | 1.89 µM | 3.75 µM
COc1ccc(C(=O)CC2(O)C(=O)Nc3c(Cl)ccc(Cl)c32)cc1 (stereo not drawn) | > 100 µM | > 100 µM | > 100 µM | 5.3 µM | 23.9 µM | > 100 µM | 3.58 µM | > 100 µM | > 100 µM | > 62.3 µM | 6.42 µM | 12.6 µM | 1.75 µM | 0.954 µM | 0.72 µM | 8.96 µM | 0.406 µM | 2.89 µM | 8.98 µM | 2.33 µM
Nc1nc2nc3c(nc2c(=O)[nH]1)CN(c1ccc(C(=O)O)cc1)C3=O | > 100 µM | > 100 µM | > 100 µM | > 100 µM | > 100 µM | > 100 µM | > 100 µM | > 100 µM | > 100 µM | > 100 µM |  |  |  |  |  |  |  |  |  | 
O=P(O)(O)OC1C(OP(=O)(O)O)C(OP(=O)(O)O)C(OP(=O)(O)O)C(OP(=O)(O)O)C1OP(=O)(O)O (stereo not drawn) | > 2000 µM | > 2000 µM | > 2000 µM | > 2000 µM | > 2000 µM | > 2000 µM | > 2000 µM | > 2000 µM | > 2000 µM | > 2000 µM | > 2000 µM | > 1700 µM | > 1560 µM | > 100 µM and > 500 µM and 1940 µM | > 2000 µM | > 2000 µM | > 2000 µM | > 2000 µM | > 1360 µM | > 2000 µM
COC1OC(OC)C2C(c3c(C)cc(C)cc3C)=NOC12 (stereo not drawn) | > 100 µM | > 100 µM | > 100 µM | > 100 µM | > 100 µM | > 100 µM | > 100 µM | > 100 µM | > 100 µM | > 100 µM |  |  |  |  |  |  |  |  |  | 
CCc1ccc(Cc2ccc(CC)c(NC(=O)C(=O)Cc3nc4ccccc4nc3C)c2CC)c(CC)c1NC(=O)C(=O)Cc1nc2ccccc2nc1C | > 100 µM | > 100 µM | > 100 µM | > 100 µM | > 100 µM | > 100 µM | > 100 µM | > 100 µM | > 100 µM | > 100 µM |  |  |  |  |  |  |  |  |  | 
CCC12C=CCN3CC[C@]4(C(=C(C(=O)OC)[C@@H]1Nc1ncnc5c1ncn5C1OC(COC(C)=O)C(OC(C)=O)C1OC(C)=O)Nc1ccccc14)C32 (stereo partly drawn) | 4.01 µM | 5.69 µM | 12.6 µM | 3.48 µM | 5.55 µM | 15.1 µM | 3.12 µM | 5.32 µM | 6.58 µM | 4.91 µM |  |  |  |  |  |  |  |  |  | 
COc1ccc(/C=C2/SC(=Nc3c(C)nn(-c4ccccc4)c3N)NC2=O)cc1 | 89.4 µM | 52.4 µM | 15.7 µM | 19.2 µM | 12.5 µM | 22.1 µM | 16.4 µM | 25.3 µM | 57.3 µM | 34.7 µM | 6.94 µM | 5.29 µM | 2.82 µM | 3.84 µM | 3.3 µM | 3.77 µM | 3.1 µM | 3.65 µM | 7.12 µM | 4.75 µM
CC(C)(O)Cn1c(=O)c(Oc2ccc(F)cc2F)cc2cnc(NC3CCOCC3)nc21 | > 25 µM | > 25 µM | > 25 µM | > 25 µM | > 25 µM | > 25 µM | > 25 µM | > 25 µM | > 25 µM | > 25 µM | > 25 µM | > 25 µM | > 25 µM | > 25 µM | > 25 µM | > 25 µM | > 25 µM | > 25 µM | > 25 µM | > 25 µM
COc1cc(-c2cc(-c3ccc(N(C)C)cc3)nc(N3CCC(O)CC3)c2C#N)cc(OC)c1OC | > 100 µM | > 100 µM | 0.7 µM | 3.42 µM | 1.65 µM | 1.54 µM | 1.32 µM | 57.7 µM | 15.7 µM | 2.83 µM | 0.399 µM | 0.478 µM | 0.0224 µM | 0.532 µM | 0.287 µM | 0.475 µM | 0.338 µM | 2.11 µM | 1.81 µM | 0.527 µM
CCN(CC)CCN(C)CC(C)(C)C(=O)/C=C/c1ccccc1 | 29.4 µM | 26.5 µM | 28.7 µM | 26.6 µM |  | 28.5 µM | 21.4 µM | 26.6 µM | 36.8 µM | 22.1 µM |  |  |  |  |  |  |  |  |  | 
CN1CCC(O)C(CNC23CC4CC(CC(C4)C2)C3)C1 (stereo not drawn) | > 100 µM | > 100 µM | > 100 µM | > 100 µM |  | > 100 µM | > 100 µM | > 100 µM | > 100 µM | > 100 µM |  |  |  |  |  |  |  |  |  | 
